Measured values published in patent US4528289A, “Corynantheine derivates, processes for their preparation, and their use” (Dr. Willmar Schwabe GmbH & Co., priority 1982, dated 1985).
Counter-ions that a name gives are not always drawn.

Experiment: hygroscopicity of crystals
Format: physicochemical
Conditions: crystals dried at 110° C. for 8 hours at oil pump vacuum
Protocol: For analysis, the product is again recrystallised from methanol by the addition of diethyl ether. […] 187° C. (decomp. from 158° C., subl. of the base); [α]D^20 =-26° (c=2 in methanol).

CC[C@H]1CN2CCc3c([nH]c4ccccc34)[C@@H]2C[C@@H]1C(COC)C(=O)OC (stereo partly shown) [Example 9, tetrahydrocorynantheine hydrochloride]
hygroscopicity (in words): slightly hygroscopic
